Laboratory results as given in patent publication US20250034216A1, “STEREOSELECTIVE COVALENT LIGANDS FOR ONCOGENIC AND IMMUNOLOGICAL PROTEINS” (The Scripps Research Institute, priority 2021, published 2025).

Key:
Assay in all cases: IA-DTB cysteine engagement
Assay type in all cases: binding
ESRP1_C551 = biological target: T1, ESRP1_C551 (Homo sapiens, UniProt Q6NXG1); conditions: 22Rv1 cells, 20 μM probe, 1 h, relative to DMSO
T1 construct: endogenous in cells; host or cells: 22Rv1
T1 sequence (Q6NXG1 1-681): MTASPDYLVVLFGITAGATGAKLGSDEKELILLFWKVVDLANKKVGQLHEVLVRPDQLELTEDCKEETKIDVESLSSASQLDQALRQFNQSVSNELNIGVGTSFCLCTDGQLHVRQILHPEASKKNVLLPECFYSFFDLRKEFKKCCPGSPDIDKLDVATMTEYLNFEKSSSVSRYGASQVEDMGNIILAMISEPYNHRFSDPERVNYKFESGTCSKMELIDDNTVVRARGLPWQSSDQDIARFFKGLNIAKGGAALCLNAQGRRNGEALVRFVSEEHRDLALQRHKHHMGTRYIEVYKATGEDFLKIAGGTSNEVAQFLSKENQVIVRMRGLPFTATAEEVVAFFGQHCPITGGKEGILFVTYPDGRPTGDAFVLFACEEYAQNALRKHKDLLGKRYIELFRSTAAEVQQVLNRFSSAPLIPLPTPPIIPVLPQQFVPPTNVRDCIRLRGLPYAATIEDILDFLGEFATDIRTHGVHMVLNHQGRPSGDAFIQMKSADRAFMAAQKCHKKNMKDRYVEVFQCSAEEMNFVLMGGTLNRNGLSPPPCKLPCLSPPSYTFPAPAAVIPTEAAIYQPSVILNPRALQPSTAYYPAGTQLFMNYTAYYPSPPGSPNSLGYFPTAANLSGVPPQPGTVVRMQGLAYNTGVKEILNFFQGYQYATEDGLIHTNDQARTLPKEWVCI
Summary of the method: (§1)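 Competitive chemoproteomics: residual cysteine reactivity toward IA-DTB in lysates from probe-treated cells was quantified by TMT reporter ions relative to DMSO-treated controls. Replicates sharing cell line, probe, concentration and duration were averaged.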

HMOX2_C282 = biological target: T2, HMOX2_C282 (Homo sapiens, UniProt P30519); conditions: 22Rv1 cells, relative to DMSO; for % engagement HMOX2_C282: 20 μM probe, 1 h; for % engagement HMOX2_282: 5 μM probe, 1 h (FIG. 5B)
T2 construct: endogenous in cells; host or cells: 22Rv1
T2 sequence (P30519 1-316): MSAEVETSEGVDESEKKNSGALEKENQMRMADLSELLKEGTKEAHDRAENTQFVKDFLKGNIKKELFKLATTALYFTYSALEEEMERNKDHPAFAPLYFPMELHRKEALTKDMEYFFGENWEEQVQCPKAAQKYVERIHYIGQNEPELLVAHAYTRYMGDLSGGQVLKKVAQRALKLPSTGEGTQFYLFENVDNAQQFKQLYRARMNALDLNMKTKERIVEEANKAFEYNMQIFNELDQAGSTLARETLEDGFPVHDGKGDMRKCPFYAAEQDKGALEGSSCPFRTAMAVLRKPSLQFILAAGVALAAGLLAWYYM
Summary of the method: as §1

LRPPRC_C571 = biological target: T3, LRPPRC_C571 (Homo sapiens, UniProt P42704); conditions: 22Rv1 cells, 20 μM probe, 1 h, relative to DMSO
T3 construct: endogenous in cells; host or cells: 22Rv1
Summary of the method: as §1

ALB_C269 = biological target: T4, ALB_C269 (Homo sapiens, UniProt P02768); conditions: 22Rv1 cells, 20 μM probe, 1 h, relative to DMSO
T4 construct: endogenous in cells; host or cells: 22Rv1
T4 sequence (P02768 25-609): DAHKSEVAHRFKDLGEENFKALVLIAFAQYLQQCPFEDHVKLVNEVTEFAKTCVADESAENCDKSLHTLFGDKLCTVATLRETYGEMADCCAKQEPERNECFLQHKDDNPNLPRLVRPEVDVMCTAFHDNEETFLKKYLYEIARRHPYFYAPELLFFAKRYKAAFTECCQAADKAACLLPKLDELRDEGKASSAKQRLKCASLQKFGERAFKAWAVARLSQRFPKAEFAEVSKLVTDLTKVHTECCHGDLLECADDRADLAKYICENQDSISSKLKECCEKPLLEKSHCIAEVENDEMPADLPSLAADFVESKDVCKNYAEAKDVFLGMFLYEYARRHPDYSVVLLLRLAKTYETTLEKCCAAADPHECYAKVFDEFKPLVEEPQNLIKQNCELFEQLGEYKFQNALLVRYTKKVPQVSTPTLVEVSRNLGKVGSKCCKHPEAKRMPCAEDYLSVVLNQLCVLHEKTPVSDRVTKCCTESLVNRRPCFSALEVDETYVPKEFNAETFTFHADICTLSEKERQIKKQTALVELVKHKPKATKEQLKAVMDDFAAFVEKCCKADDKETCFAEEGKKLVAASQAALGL
Summary of the method: as §1

Compound | % engagement ESRP1_C551 (ESRP1_C551) [%] | % engagement HMOX2_C282 (HMOX2_C282) [%] | % engagement LRPPRC_C571 (LRPPRC_C571) [%] | % engagement ALB_C269 (ALB_C269) [%] | % engagement HMOX2_282 (HMOX2_C282) [%]
C=CC(=O)N1C[C@@H](c2ccc(Br)cc2)[C@H]1C(=O)Nc1cccc2cccnc12 [MY-1A, (2S,3R)-1-acryloyl-3-(4-bromophenyl)-N-(quinolin-8-yl)azetidine-2-carboxamide] | 51 | 93.5 | 73.5 | 42.5 | –
C=CC(=O)N1C[C@H](c2ccc(Br)cc2)[C@@H]1C(=O)Nc1cccc2cccnc12 [MY-1B, (2R,3S)-1-acryloyl-3-(4-bromophenyl)-N-(quinolin-8-yl)azetidine-2-carboxamide] | 73.5 | 96.25 | 7 | 47.5 | 94.00

Results, then the molecule that gave them:

% engagement ESRP1_C551 (ESRP1_C551) [%] | % engagement HMOX2_C282 (HMOX2_C282) [%] | % engagement LRPPRC_C571 (LRPPRC_C571) [%] | % engagement ALB_C269 (ALB_C269) [%] | % engagement HMOX2_282 (HMOX2_C282) [%] | Compound
6.5 | 96.25 | 20 | 86 | – | C=CC(=O)N1C[C@H](c2ccc(Br)cc2)[C@H]1C(=O)Nc1cccc2cccnc12 [MY-3A, (2S,3S)-1-acryloyl-3-(4-bromophenyl)-N-(quinolin-8-yl)azetidine-2-carboxamide]
69 | 97.75 | 5 | 79.5 | – | C=CC(=O)N1C[C@H](c2ccc(Br)cc2)[C@H]1C(=O)Nc1cccc2cccnc12 [MY-3B, (2S,3S)-1-acryloyl-3-(4-bromophenyl)-N-(quinolin-8-yl)azetidine-2-carboxamide]
– | – | – | – | 92.13 | CC#CC(=O)N1C[C@H](c2ccc(Br)cc2)[C@@H]1C(=O)Nc1cccc2cccnc12 [MY-45B, (2R,3S)-3-(4-bromophenyl)-1-(but-2-ynoyl)-N-(quinolin-8-yl)azetidine-2-carboxamide]
